In patent US20250282794A1 (CURADEV PHARMA LTD, priority 2022, published 2025) one finds IC50 data, which are given here for 25 compounds.

Where a name gives a salt, the structure may show the parent alone.

For the test, the target named is recombinant full length HPK-1 enzyme (Homo sapiens (Human), UniProt Q92918). The test is described as follows: HPK-1 biochemical enzyme assay (ADP-Glo kinase inhibition). Particulars: recombinant full length HPK-1 6.8 nM, 10 μM ATP, 12.5 μM MBP, 30 mins at 25° C. How it is done: HPK-1 biochemical enzyme assay
Chain of recombinant full length HPK-1 enzyme (Q92918 whole entry, species assumed): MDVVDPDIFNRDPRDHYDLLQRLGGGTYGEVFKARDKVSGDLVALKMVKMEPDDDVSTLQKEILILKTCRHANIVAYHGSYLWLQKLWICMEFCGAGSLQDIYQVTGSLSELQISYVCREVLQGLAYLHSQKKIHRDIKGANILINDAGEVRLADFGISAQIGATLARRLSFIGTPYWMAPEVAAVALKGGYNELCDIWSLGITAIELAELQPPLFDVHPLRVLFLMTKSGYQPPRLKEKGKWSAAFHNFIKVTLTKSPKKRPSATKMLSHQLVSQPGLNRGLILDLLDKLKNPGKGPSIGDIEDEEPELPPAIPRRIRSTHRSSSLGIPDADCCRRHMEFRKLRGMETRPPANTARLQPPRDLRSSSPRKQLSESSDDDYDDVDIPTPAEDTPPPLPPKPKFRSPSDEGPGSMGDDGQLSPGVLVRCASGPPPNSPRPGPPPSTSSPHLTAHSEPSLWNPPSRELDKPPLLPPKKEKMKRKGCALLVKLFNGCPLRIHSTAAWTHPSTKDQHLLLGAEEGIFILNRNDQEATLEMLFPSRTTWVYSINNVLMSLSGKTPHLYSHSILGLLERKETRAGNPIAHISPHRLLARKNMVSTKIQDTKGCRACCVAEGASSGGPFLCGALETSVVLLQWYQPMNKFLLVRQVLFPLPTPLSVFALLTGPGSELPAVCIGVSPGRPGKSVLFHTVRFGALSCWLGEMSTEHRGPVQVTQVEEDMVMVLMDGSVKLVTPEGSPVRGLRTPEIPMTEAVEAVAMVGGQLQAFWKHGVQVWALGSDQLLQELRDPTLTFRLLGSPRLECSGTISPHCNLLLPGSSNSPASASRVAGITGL
Compound inhibitory potency was measured in an HPK-1 kinase inhibition assay. Briefly, recombinant full length HPK-1 enzyme (6.8 nM) was incubated with 10 μM ATP and 12.5 μM swine myelin basic protein (MBP) for 30 mins. at 25° C. in the presence of various concentrations of test compound or vehicle in 40 mM Tris.Cl pH7.4 buffer containing 20 mM MgCl2, 50 μM DTT and 0.1 mg/mL BSA. Reactions were quenched and reaction mixtures were then analyzed by an ADP-Glo kit which measures the formed ADP. The percent inhibition was calculated from the substrate conversion considering no enzyme control reactions for 100% inhibition and vehicle only reactions for 0% inhibition. The compounds were dissolved in DMSO and evaluated at 10 concentrations to determine an IC50 value.
In the below table A denotes an HPK-1 IC50≤10 nM, B denotes an HPK-1 IC50>10 nM but≤100 nM and C denotes an HPK-1 IC50>100 nM but≤1000 nM.
A general note: ADP-Glo first removes unused ATP, then detects ADP through luciferase.
Consider `Cc1c(Nc2cc[nH]c(=O)c2C(=O)Nc2ccc(N3CCN(C)CC3)cc2)cnc2c1NCCO2` [Example 45, 4-((8-Methyl-2,3-dihydro-1H-pyrido[2,3-b][1,4]oxazin-7-yl)amino)-N-(4-(4-methylpiperazin-1-yl)phenyl)-2-oxo-1,2-dihydropyridine-3-carboxamide], for which the IC50 was at most 10 nM.

For `Cc1c(Nc2cc[nH]c(=O)c2C(=O)Nc2ccc(N3CCN(C)CC3)cc2)cnc2c1N(C)CCO2` [Example 93, 4-((1,8-dimethyl-2,3-dihydro-1H-pyrido[2,3-b][1,4]oxazin-7-yl)amino)-N-(4-(4-methylpiperazin-1-yl)phenyl)-2-oxo-1,2-dihydropyridine-3-carboxamide], the IC50 was 10 to 100 nM. Take `Cc1c(Nc2cc[nH]c(=O)c2C(=O)Nc2ccc(N3CCN(C)CC3)c(F)c2)cnc2c1NCCO2` [Example 96, N-(3-fluoro-4-(4-methylpiperazin-1-yl)phenyl)-4-((8-methyl-2,3-dihydro-1H-pyrido[2,3-b][1,4]oxazin-7-yl)amino)-2-oxo-1,2-dihydropyridine-3-carboxamide]: the IC50 was at most 10 nM. Take `Cc1c(Nc2cc[nH]c(=O)c2C(=O)Nc2ccc(C3CCN(C)CC3)cc2)cnc2c1NCCO2` [Example 97, 4-((8-methyl-2,3-dihydro-1H-pyrido[2,3-b][1,4]oxazin-7-yl)amino)-N-(4-(1-methylpiperidin-4-yl)phenyl)-2-oxo-1,2-dihydropyridine-3-carboxamide]: the IC50 is at most 10 nM. Regarding `Cc1c(Nc2nc[nH]c(=O)c2C(=O)Nc2ccc(N3CCN(C)CC3)cc2)cnc2c1NCCO2` [Example 98, 4-((8-Methyl-2,3-dihydro-1H-pyrido[2,3-b][1,4]oxazin-7-yl)amino)-N-(4-(4-methylpiperazin-1-yl)phenyl)-6-oxo-1,6-dihydropyrimidine-5-carboxamide], the IC50 fell in the range of 10 to 100 nM.

On to `Cc1c(Nc2cc[nH]c(=O)c2C(=O)Nc2ccc(N3CCN(CCO)CC3)cc2)cnc2c1NCCO2` [Example 105, N-(4-(4-(2-hydroxyethyl)piperazin-1-yl)phenyl)-4-((8-methyl-2,3-dihydro-1H-pyrido[2,3-b][1,4]oxazin-7-yl)amino)-2-oxo-1,2-dihydropyridine-3-carboxamide], for which the 50% inhibitory concentration (IC50) is at most 10 nM. As for `Cc1c(Nc2cc[nH]c(=O)c2C(=O)Nc2ccc(N3CCN(C(C)C)CC3)cc2)cnc2c1NCCO2` [Example 106, N-(4-(4-isopropylpiperazin-1-yl)phenyl)-4-((8-methyl-2,3-dihydro-1H-pyrido[2,3-b][1,4]oxazin-7-yl)amino)-2-oxo-1,2-dihydropyridine-3-carboxamide], the concentration for half-maximal inhibition (IC50) is at most 10 nM.

For the compound `CN1CCN(c2ccc(NC(=O)c3c(Nc4cnc5c(c4)NCCO5)cc[nH]c3=O)cc2)CC1` [Example 115, 4-((2,3-dihydro-1H-pyrido[2,3-b][1,4]oxazin-7-yl)amino)-N-(4-(4-methylpiperazin-1-yl)phenyl)-2-oxo-1,2-dihydropyridine-3-carboxamide.TFA], the IC50 lay within 10 to 100 nM. Take `CN1CCN(c2ccc(NC(=O)c3c(Nc4cnc5c(c4)N(C)CCO5)cc[nH]c3=O)cc2)CC1` [Example 118, 4-((1-methyl-2,3-dihydro-1H-pyrido[2,3-b][1,4]oxazin-7-yl)amino)-N-(4-(4-methylpiperazin-1-yl)phenyl)-2-oxo-1,2-dihydropyridine-3-carboxamide]: the IC50 lay within 10 to 100 nM. As for `Cc1c(Nc2cc[nH]c(=O)c2C(=O)Nc2ccc(N3CCN(C)CC3)cc2)cnc2c1NCC(C)O2` (stereo not shown) [Example 125, 4-((3,8-dimethyl-2,3-dihydro-1H-pyrido[2,3-b][1,4]oxazin-7-yl)amino)-N-(4-(4-methylpiperazin-1-yl)phenyl)-2-oxo-1,2-dihydropyridine-3-carboxamide], the IC50 is 10 to 100 nM.

For the compound `Cc1c(Nc2cc[nH]c(=O)c2C(=O)Nc2ccc(N3CCN(C)CC3)cc2)cnc2c1NC(=O)CO2` [Example 126, 4-((8-methyl-2-oxo-2,3-dihydro-1H-pyrido[2,3-b][1,4]oxazin-7-yl)amino)-N-(4-(4-methylpiperazin-1-yl)phenyl)-2-oxo-1,2-dihydropyridine-3-carboxamide], the IC50 was 10 to 100 nM. Regarding `Cc1c(Nc2cc[nH]c(=O)c2C(=O)Nc2ccc(-c3ccccn3)cc2)cnc2c1NCCO2` [Example 130, 4-((8-methyl-2,3-dihydro-1H-pyrido[2,3-b][1,4]oxazin-7-yl)amino)-2-oxo-N-(4-(pyridin-2-yl)phenyl)-1,2-dihydropyridine-3-carboxamide], the IC50 is 10 to 100 nM. Take `COc1c(Nc2cc[nH]c(=O)c2C(=O)Nc2ccc(N3CCN(C)CC3)cc2)cnc2c1NCCO2` [Example 132, 4-((8-Methoxy-2,3-dihydro-1H-pyrido[2,3-b][1,4]oxazin-7-yl)amino)-N-(4-(4-methylpiperazin-1-yl)phenyl)-2-oxo-1,2-dihydropyridine-3-carboxamide]: the half-maximal inhibitory concentration (IC50) fell in the range of 10 to 100 nM. As for `Cc1c(Nc2cc[nH]c(=O)c2C(=O)Nc2ccc(C3CCOCC3)cc2)cnc2c1NCCO2` [Example 133, 4-((8-methyl-2,3-dihydro-1H-pyrido[2,3-b][1,4]oxazin-7-yl)amino)-2-oxo-N-(4-(tetrahydro-2H-pyran-4-yl)phenyl)-1,2-dihydropyridine-3-carboxamide], the IC50 lay within 10 to 100 nM. In the case of `Cc1c(Nc2cc[nH]c(=O)c2C(=O)Nc2ccc(N3CCN(C(C)C)CC3)c(F)c2)cnc2c1NCCO2` [Example 134, N-(3-fluoro-4-(4-isopropylpiperazin-1-yl)phenyl)-4-((8-methyl-2,3-dihydro-1H-pyrido[2,3-b][1,4]oxazin-7-yl)amino)-2-oxo-1,2-dihydropyridine-3-carboxamide], the concentration for half-maximal inhibition (IC50) was at most 10 nM. For the compound `CCN1CCN(c2ccc(NC(=O)c3c(Nc4cnc5c(c4C)NCCO5)cc[nH]c3=O)cc2F)CC1` [Example 135, N-(4-(4-ethylpiperazin-1-yl)-3-fluorophenyl)-4-((8-methyl-2,3-dihydro-1H-pyrido[2,3-b][1,4]oxazin-7-yl)amino)-2-oxo-1,2-dihydropyridine-3-carboxamide], the IC50 is at most 10 nM. As for `CCN1CCN(c2ccc(NC(=O)c3c(Nc4cnc5c(c4C)NCCO5)cc[nH]c3=O)cc2)CC1` [Example 136, N-(4-(4-ethylpiperazin-1-yl)phenyl)-4-((8-methyl-2,3-dihydro-1H-pyrido[2,3-b][1,4]oxazin-7-yl)amino)-2-oxo-1,2-dihydropyridine-3-carboxamide], the 50% inhibitory concentration (IC50) is at most 10 nM. Take `Cc1c(Nc2cc[nH]c(=O)c2C(=O)Nc2ccc(N3CCN(C(=O)N(C)C)CC3)cc2)cnc2c1NCCO2` [Example 137, N,N-Dimethyl-4-(4-(4-((8-methyl-2,3-dihydro-1H-pyrido[2,3-b][1,4]oxazin-7-yl)amino)-2-oxo-1,2-dihydropyridine-3-carboxamido)phenyl) piperazine-1-carboxamide]: the half-maximal inhibitory concentration (IC50) was at most 10 nM. With `Cc1c(Nc2cc[nH]c(=O)c2C(=O)Nc2ccc(N3CCS(=O)(=O)CC3)cc2)cnc2c1NCCO2` [Example 138, N-(4-(1,1-dioxidothiomorpholino)phenyl)-4-((8-methyl-2,3-dihydro-1H-pyrido[2,3-b][1,4]oxazin-7-yl)amino)-2-oxo-1,2-dihydropyridine-3-carboxamide], the IC50 is at most 10 nM. With `Cc1c(Nc2cc[nH]c(=O)c2C(=O)Nc2ccc(N3CCNCC3)cc2)cnc2c1NCCO2` [Example 139, 4-((8-methyl-2,3-dihydro-1H-pyrido[2,3-b][1,4]oxazin-7-yl)amino)-2-oxo-N-(4-(piperazin-1-yl)phenyl)-1,2-dihydropyridine-3-carboxamide], the IC50 was at most 10 nM. Consider `COCCN1CCN(c2ccc(NC(=O)c3c(Nc4cnc5c(c4C)NCCO5)cc[nH]c3=O)cc2)CC1` [Example 140, N-(4-(4-(2-methoxyethyl)piperazin-1-yl)phenyl)-4-((8-methyl-2,3-dihydro-1H-pyrido[2,3-b][1,4]oxazin-7-yl)amino)-2-oxo-1,2-dihydropyridine-3-carboxamide], for which the IC50 is at most 10 nM. Consider `Cc1c(Nc2cc[nH]c(=O)c2C(=O)Nc2ccc(N3CCN(C(=O)N4CCC(F)(F)C4)CC3)cc2)cnc2c1NCCO2` [Example 143, N-(4-(4-(3,3-difluoropyrrolidine-1-carbonyl)piperazin-1-yl)phenyl)-4-((8-methyl-2,3-dihydro-1H-pyrido[2,3-b][1,4]oxazin-7-yl)amino)-2-oxo-1,2-dihydropyridine-3-carboxamide], for which the half-inhibitory concentration (IC50) was at most 10 nM. Next, `Cc1c(Nc2cc[nH]c(=O)c2C(=O)Nc2ccc(-c3cn[nH]c3)cc2)cnc2c1NCCO2` [Example 144, N-(4-(1H-pyrazol-4-yl)phenyl)-4-((8-methyl-2,3-dihydro-1H-pyrido[2,3-b][1,4]oxazin-7-yl)amino)-2-oxo-1,2-dihydropyridine-3-carboxamide]: 10 to 100 nM. Next, `Cc1c(Nc2cc[nH]c(=O)c2C(=O)Nc2ccc(-c3cc[nH]n3)cc2)cnc2c1NCCO2` [Example 145, N-(4-(1H-pyrazol-3-yl)phenyl)-4-((8-methyl-2,3-dihydro-1H-pyrido[2,3-b][1,4]oxazin-7-yl)amino)-2-oxo-1,2-dihydropyridine-3-carboxamide]: 10 to 100 nM; `Cc1c(Nc2cc[nH]c(=O)c2C(=O)Nc2ccc(-c3cnco3)cc2)cnc2c1NCCO2` [Example 146, 4-((8-methyl-2,3-dihydro-1H-pyrido[2,3-b][1,4]oxazin-7-yl)amino)-N-(4-(oxazol-5-yl)phenyl)-2-oxo-1,2-dihydropyridine-3-carboxamide]: 10 to 100 nM.

As a reminder, the IC50 is the concentration at which inhibition is half-maximal.
